According to publication PMC5458547, “Discovery of first-in-class reversible dual small molecule inhibitors against G9a and DNMTs in hematological malignancies” (Nature Communications, 2017):
Like-named read-outs stand apart in the source and are kept apart here.

Columns and labels:
BRD1 = target: T1, BRD1 (Homo sapiens, UniProt O95696); experiment: Epigenetics selectivity panel (BPS Bioscience); format: binding
T1 construct: purchased DiscoverX KINOMEscan (kinases); BPS Bioscience (epigenetic targets)

[1] = target: T2, ABL1(T315I)-phosphorylated (Homo sapiens, UniProt P00519, T315I); experiment: KINOMEscan kinase profiling; format: binding; details: read-out: Percent Control
T2 construct: purchased DiscoverX KINOMEscan (kinases); BPS Bioscience (epigenetic targets)
Experimental: (§1) Kinase Selectivity Profiling
(§2) (out of which 90 are non-mutant kinases) was performed at DiscoverRx (http://www.discoverx.com/home) using the KINOMEscan™ screening platform at a test concentration of 10 µM. Results for primary screen […]
(§3) positive control signal) / (negative control signal – positive control signal) *100, where negative control corresponds to DMSO treatment (100%) and positive control to the signal obtained with a control competitive compound (0%). […]
(§4) using the Hill equation. Each target was assayed in duplicate. […]

AKT2 = target: T3, AKT2 (Homo sapiens, UniProt P31751); experiment: KINOMEscan kinase profiling; format: binding; details: read-out: Percent Control
T3 construct: purchased DiscoverX KINOMEscan (kinases); BPS Bioscience (epigenetic targets)
Experimental: as §1, §2, §3, §4

AXL = target: T4, AXL (Homo sapiens, UniProt P30530); experiment: KINOMEscan kinase profiling; format: binding; details: read-out: Percent Control
T4 construct: purchased DiscoverX KINOMEscan (kinases); BPS Bioscience (epigenetic targets)
Experimental: as §1, §2, §3, §4

CDK3 = target: T5, CDK3 (Homo sapiens, UniProt Q00526); experiment: KINOMEscan kinase profiling; format: binding; details: read-out: Percent Control
T5 construct: purchased DiscoverX KINOMEscan (kinases); BPS Bioscience (epigenetic targets)
T5 sequence (Q00526 whole entry): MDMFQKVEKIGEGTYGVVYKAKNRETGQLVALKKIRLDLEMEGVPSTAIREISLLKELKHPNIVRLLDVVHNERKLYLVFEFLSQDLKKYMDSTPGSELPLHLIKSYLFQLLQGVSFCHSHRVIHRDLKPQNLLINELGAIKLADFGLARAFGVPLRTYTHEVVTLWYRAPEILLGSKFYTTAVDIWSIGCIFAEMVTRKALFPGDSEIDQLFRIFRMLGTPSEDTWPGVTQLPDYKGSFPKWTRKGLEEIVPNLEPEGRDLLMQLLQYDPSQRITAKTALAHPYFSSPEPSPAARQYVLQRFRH
Experimental: as §1, §2, §3, §4

CSNK1G2 = target: T6, CSNK1G2 (Homo sapiens, UniProt P78368); experiment: KINOMEscan kinase profiling; format: binding; details: read-out: Percent Control
T6 construct: purchased DiscoverX KINOMEscan (kinases); BPS Bioscience (epigenetic targets)
Experimental: as §1, §2, §3, §4

EGFR = target: T7, EGFR (Homo sapiens, UniProt P00533); experiment: KINOMEscan kinase profiling; format: binding; details: read-out: Percent Control
T7 construct: purchased DiscoverX KINOMEscan (kinases); BPS Bioscience (epigenetic targets)
Experimental: as §1, §2, §3, §4

FGFR2 = target: T8, FGFR2 (Homo sapiens, UniProt P21802); experiment: KINOMEscan kinase profiling; format: binding; details: read-out: Percent Control
T8 construct: purchased DiscoverX KINOMEscan (kinases); BPS Bioscience (epigenetic targets)
T8 sequence (P21802 22-821): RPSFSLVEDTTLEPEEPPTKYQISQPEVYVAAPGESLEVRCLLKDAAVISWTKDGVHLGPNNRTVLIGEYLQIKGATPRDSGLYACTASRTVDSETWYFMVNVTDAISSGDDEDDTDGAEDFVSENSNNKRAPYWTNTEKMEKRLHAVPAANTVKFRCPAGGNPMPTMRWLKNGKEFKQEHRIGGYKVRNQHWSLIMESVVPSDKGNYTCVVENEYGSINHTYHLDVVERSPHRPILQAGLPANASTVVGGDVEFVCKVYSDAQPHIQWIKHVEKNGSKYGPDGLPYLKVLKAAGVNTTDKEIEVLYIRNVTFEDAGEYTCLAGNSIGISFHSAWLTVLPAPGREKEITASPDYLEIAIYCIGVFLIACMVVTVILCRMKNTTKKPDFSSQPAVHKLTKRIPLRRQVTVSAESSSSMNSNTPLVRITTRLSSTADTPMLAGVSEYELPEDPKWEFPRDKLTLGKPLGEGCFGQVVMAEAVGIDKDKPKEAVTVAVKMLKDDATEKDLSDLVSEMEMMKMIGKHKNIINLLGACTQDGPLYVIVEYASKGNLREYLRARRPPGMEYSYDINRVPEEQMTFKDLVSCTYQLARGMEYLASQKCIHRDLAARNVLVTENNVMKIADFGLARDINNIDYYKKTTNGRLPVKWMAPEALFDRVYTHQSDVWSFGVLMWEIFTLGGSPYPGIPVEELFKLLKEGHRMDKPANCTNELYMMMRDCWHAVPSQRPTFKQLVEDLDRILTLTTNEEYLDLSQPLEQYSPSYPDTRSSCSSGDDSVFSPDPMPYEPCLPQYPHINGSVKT
Experimental: as §1, §2, §3, §4

GSK3B = target: T9, GSK3B (Homo sapiens, UniProt P49841); experiment: KINOMEscan kinase profiling; format: binding; details: read-out: Percent Control
T9 construct: purchased DiscoverX KINOMEscan (kinases); BPS Bioscience (epigenetic targets)
T9 sequence (P49841 whole entry): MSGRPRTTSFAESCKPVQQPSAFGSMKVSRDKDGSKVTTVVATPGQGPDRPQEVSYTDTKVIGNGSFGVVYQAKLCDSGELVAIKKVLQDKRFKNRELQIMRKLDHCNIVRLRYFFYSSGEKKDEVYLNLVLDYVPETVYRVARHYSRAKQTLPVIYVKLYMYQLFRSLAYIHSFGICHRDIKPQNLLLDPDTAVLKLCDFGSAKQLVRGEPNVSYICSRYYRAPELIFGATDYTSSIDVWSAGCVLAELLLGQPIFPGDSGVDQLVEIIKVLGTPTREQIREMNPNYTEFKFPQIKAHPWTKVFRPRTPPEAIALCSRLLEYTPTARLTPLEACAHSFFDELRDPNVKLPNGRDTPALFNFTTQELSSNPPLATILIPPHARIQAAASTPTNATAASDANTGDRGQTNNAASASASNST
Experimental: as §1, §2, §3, §4

[2] = target: T10, JAK2(JH1domain-catalytic) (Homo sapiens, UniProt O60674); experiment: KINOMEscan kinase profiling; format: binding; details: read-out: Percent Control
T10 construct: JAK2(JH1domain-catalytic); purchased DiscoverX KINOMEscan (kinases); BPS Bioscience (epigenetic targets)
T10 sequence (O60674 840-1132 limits assumed): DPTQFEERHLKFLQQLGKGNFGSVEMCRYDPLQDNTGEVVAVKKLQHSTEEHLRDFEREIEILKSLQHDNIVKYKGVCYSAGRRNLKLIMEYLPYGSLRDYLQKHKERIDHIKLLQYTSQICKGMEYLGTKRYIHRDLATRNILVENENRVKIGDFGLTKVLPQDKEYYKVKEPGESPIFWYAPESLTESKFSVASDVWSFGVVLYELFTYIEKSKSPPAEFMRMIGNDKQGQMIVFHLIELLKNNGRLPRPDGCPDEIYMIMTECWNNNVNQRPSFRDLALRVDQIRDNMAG
Experimental: as §1, §2, §3, §4

KIT(V559D,T670I) = target: T11, KIT(V559D,T670I) (Homo sapiens, UniProt P10721, T670I/V559D); experiment: KINOMEscan kinase profiling; format: binding; details: read-out: Percent Control
T11 construct: purchased DiscoverX KINOMEscan (kinases); BPS Bioscience (epigenetic targets)
T11 sequence (P10721 26-976 V559D/T670I): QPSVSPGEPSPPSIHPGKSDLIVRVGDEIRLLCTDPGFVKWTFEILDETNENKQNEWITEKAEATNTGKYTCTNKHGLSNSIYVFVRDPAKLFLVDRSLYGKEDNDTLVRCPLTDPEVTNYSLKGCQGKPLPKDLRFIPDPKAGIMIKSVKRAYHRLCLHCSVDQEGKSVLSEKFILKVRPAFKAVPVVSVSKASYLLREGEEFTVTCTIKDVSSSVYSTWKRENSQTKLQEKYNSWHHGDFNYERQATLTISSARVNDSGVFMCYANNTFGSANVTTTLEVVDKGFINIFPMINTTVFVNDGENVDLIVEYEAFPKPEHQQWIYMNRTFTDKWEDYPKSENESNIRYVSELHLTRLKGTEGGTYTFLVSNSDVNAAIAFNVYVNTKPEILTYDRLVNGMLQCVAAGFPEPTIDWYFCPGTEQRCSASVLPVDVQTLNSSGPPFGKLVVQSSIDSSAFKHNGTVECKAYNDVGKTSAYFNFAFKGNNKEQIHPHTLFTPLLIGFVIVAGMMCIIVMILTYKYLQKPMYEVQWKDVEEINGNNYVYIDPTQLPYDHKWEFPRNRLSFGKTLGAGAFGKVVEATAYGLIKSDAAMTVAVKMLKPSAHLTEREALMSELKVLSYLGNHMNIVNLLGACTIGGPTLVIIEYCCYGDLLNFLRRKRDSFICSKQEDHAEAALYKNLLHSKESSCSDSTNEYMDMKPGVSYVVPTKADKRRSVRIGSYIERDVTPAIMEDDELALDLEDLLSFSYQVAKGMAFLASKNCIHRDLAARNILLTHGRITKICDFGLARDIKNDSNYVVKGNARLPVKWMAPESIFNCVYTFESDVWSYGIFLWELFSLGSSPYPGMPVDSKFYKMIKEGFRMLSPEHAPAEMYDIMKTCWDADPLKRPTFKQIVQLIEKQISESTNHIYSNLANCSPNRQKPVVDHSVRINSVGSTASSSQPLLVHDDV
Experimental: as §1, §2, §3, §4

MKNK1 = target: T12, MKNK1 (Homo sapiens, UniProt Q9BUB5); experiment: KINOMEscan kinase profiling; format: binding; details: read-out: Percent Control
T12 construct: purchased DiscoverX KINOMEscan (kinases); BPS Bioscience (epigenetic targets)
Experimental: as §1, §2, §3, §4

PDPK1 = target: T13, PDPK1 (Homo sapiens, UniProt O15530); experiment: KINOMEscan kinase profiling; format: binding; details: read-out: Percent Control
T13 construct: purchased DiscoverX KINOMEscan (kinases); BPS Bioscience (epigenetic targets)
T13 sequence (O15530 whole entry): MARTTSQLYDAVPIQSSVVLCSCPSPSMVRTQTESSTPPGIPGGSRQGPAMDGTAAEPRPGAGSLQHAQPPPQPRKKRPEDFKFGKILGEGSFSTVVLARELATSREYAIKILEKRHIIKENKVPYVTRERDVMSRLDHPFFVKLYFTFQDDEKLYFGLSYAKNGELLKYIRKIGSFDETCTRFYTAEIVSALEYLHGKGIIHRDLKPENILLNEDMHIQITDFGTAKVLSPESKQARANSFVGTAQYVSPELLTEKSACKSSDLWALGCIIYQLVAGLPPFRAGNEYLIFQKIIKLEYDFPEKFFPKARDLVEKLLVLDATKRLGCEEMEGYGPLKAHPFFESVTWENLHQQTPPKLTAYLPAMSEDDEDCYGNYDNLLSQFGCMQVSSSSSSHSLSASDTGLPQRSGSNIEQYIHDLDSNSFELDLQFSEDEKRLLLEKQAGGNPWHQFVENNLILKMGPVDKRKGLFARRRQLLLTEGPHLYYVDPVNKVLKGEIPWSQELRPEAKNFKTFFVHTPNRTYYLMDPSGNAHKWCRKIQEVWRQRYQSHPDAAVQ
Experimental: as §1, §2, §3, §4

PIM2 = target: T14, PIM2 (Homo sapiens, UniProt Q9P1W9); experiment: KINOMEscan kinase profiling; format: binding; details: read-out: Percent Control
T14 construct: purchased DiscoverX KINOMEscan (kinases); BPS Bioscience (epigenetic targets)
T14 sequence (Q9P1W9 whole entry): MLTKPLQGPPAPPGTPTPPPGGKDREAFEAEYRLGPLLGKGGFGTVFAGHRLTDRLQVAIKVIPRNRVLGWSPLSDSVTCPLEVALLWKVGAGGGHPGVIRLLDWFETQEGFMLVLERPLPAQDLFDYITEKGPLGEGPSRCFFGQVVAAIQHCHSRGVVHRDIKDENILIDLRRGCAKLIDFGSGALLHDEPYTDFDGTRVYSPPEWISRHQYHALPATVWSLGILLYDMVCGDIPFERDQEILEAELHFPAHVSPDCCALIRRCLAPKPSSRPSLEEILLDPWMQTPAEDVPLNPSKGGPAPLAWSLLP
Experimental: as §1, §2, §3, §4

PIM3 = target: T15, PIM3 (Homo sapiens, UniProt Q86V86); experiment: KINOMEscan kinase profiling; format: binding; details: read-out: Percent Control
T15 construct: purchased DiscoverX KINOMEscan (kinases); BPS Bioscience (epigenetic targets)
Experimental: as §1, §2, §3, §4

PLK1 = target: T16, PLK1 (Homo sapiens, UniProt P53350); experiment: KINOMEscan kinase profiling; format: binding; details: read-out: Percent Control
T16 construct: purchased DiscoverX KINOMEscan (kinases); BPS Bioscience (epigenetic targets)
Experimental: as §1, §2, §3, §4

ROCK2 = target: T17, ROCK2 (Homo sapiens, UniProt O75116); experiment: KINOMEscan kinase profiling; format: binding
T17 construct: purchased DiscoverRx (DiscoverX), KINOMEscan screening platform
T17 sequence (O75116 whole entry): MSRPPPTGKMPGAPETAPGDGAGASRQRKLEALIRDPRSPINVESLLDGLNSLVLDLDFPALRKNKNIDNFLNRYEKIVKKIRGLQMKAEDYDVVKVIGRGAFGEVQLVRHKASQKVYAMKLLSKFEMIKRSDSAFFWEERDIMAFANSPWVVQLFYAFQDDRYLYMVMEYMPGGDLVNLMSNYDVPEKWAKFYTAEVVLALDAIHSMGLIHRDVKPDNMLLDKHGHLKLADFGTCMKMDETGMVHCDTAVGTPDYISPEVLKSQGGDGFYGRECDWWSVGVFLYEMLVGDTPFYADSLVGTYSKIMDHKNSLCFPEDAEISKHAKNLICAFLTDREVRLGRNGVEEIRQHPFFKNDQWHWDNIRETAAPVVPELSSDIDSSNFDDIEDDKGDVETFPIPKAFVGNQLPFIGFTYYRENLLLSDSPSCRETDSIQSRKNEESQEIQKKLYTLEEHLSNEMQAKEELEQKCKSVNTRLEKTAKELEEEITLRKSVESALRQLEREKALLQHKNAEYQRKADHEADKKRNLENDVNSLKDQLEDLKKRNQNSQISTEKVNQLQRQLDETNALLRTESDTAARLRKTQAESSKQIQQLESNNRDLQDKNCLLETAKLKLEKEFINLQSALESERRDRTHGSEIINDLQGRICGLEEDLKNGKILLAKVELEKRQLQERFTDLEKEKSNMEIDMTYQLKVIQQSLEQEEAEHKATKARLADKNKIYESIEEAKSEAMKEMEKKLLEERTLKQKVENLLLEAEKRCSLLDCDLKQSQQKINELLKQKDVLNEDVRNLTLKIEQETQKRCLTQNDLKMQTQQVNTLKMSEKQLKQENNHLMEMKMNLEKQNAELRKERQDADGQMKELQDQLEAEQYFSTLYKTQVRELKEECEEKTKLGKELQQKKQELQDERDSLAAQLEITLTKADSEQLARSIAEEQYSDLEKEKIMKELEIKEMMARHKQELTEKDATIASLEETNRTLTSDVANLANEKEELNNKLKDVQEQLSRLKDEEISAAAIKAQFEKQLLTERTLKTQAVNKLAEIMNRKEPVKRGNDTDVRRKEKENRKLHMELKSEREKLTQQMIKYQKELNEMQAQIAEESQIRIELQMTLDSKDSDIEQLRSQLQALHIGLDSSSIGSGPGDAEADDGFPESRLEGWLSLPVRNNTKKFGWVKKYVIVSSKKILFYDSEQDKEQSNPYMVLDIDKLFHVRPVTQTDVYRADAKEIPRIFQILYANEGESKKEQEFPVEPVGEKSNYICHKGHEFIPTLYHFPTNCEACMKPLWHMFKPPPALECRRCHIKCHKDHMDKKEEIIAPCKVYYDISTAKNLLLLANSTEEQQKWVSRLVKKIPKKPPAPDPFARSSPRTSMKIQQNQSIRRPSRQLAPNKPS
Experimental: as §1, §2, §3, §4

TIE2 = target: T18, TIE2 (Homo sapiens, UniProt Q02763); experiment: KINOMEscan kinase profiling; format: binding; details: read-out: Percent Control
T18 construct: purchased DiscoverX KINOMEscan (kinases); BPS Bioscience (epigenetic targets)
Experimental: as §1, §2, §3, §4

LAL-CUN-13 = experiment: Cell proliferation assay (MTS); format: cell-based; details: Homo sapiens; ALL, 48 h
SU-DHL-4 = experiment: Cell proliferation assay (MTS); format: cell-based; details: Homo sapiens, GC-DLBCL, 48 h
SU-DHL-7 = experiment: Cell proliferation assay (MTS); format: cell-based; details: Homo sapiens; GC-DLBCL, 48 h
BxPC3 = experiment: Cell proliferation assay (MTS); format: cell-based; details: Homo sapiens, BXPC-3; Pancreas
Mia Paca-2 = experiment: Cell proliferation assay (MTS); format: cell-based; details: Homo sapiens, Pancreas
OCI-Ly10 = experiment: Cell proliferation assay (MTS); format: cell-based, human; details: ABC-DLBCL, 48 h, read-out: GI50

COc1cc2c(NC3CCN(C)CC3)cc(-c3ccc(C)o3)nc2cc1OCCCN1CCCC1 [CM-272, 6-methoxy-2-(5-methyl-2-furyl)-N-(1-methyl-4-piperidyl)-7-(3-pyrrolidin-1-ylpropoxy)quinolin-4-amine]
inhibition at 10 µM (BRD1): 0%
remaining binding at 10 µM [1]: 25%
remaining binding at 10 µM (AKT2): 100%
remaining binding at 10 µM (AXL): 100%
remaining binding at 10 µM (CDK3): 100%
remaining binding at 10 µM (CSNK1G2): 95%
remaining binding at 10 µM (EGFR): 100%
remaining binding at 10 µM (FGFR2): 100%
remaining binding at 10 µM (GSK3B): 61%
remaining binding at 10 µM [2]: 10%
remaining binding at 10 µM (KIT(V559D,T670I)): 100%
remaining binding at 10 µM (MKNK1): 1.4%
remaining binding at 10 µM (PDPK1): 100%
remaining binding at 10 µM (PIM2): 93%
remaining binding at 10 µM (PIM3): 81%
remaining binding at 10 µM (PLK1): 31%
remaining binding at 10 µM (ROCK2; 10 µM, read-out: Percent Control): 0.3%
Kd (ROCK2; KINOMEscan): 1.7 µM
remaining binding at 10 µM (TIE2): 90%
GI50 (LAL-CUN-13): 1.4 µM
GI50 (SU-DHL-4): 1.16 µM
GI50 (SU-DHL-7): 0.636 µM
GI50 (BxPC3): 0.319 µM
GI50 (Mia Paca-2): 0.206 µM

COc1cc2c(NCC3CCN(C)CC3)cc(-c3ccc(C)o3)nc2cc1OCCCN1CCCC1 [CM-579, 6-methoxy-2-(5-methyl-2-furyl)-N-[(1-methyl-4-piperidyl)methyl]-7-(3-pyrrolidin-1-ylpropoxy)quinolin-4-amine]
GI50 (OCI-Ly10): < 0.031 µM
GI50 (OCI-Ly10; Homo sapiens, OCI-Ly10, 48 h): 0.031 µM
